In a melting point compilation (Tetko et al.; mined from patent text by program, amines drawn as free bases though some values may be those of a salt):

Row | Structure (SMILES) | melting point [°C]
1 | CCOC(=O)C(C)(NC(C)=O)C(=O)OCC | 89 to 90
2 | CCC(=O)c1cccc(S(N)(=O)=O)c1 | 152 to 153
3 | CCOc1c(C(=O)OCC(C)(C)C(O)C(C)(C)C)oc2ccc(OC)cc12 (centres undefined) | 100 to 101
4 | CCOC(=O)c1cc(-n2c(=O)c3c(n(COC)c2=O)CCC3)ccc1Cl | 103 to 106
5 | COc1cc2[nH]c(=O)n(S(=O)(=O)c3ccc(Cl)cc3)c(=O)c2cc1OC | > 250
6 | COc1ccc2c(c1)c(Cc1cc(=O)n(C3CCCCC3)[nH]1)c(C)n2C(=O)c1ccc(Cl)cc1 | 187 to 188
7 | O=S1(=O)CCN2CCCC(c3ccc(C(F)(F)F)cc3)C2=N1 (centres undefined) | 226 to 227
8 | CCCCc1sc(C(N)=O)c2c1-c1nn(C)cc1CC2 | 227 to 228
9 | CC(C)(C)NS(=O)(=O)c1cncc(Br)c1 | 110
10 | NC(=O)c1ccc(F)c2c1CC(NCCCc1c[nH]c3ccc(Cl)cc13)CO2 (centres undefined) | 218 to 221
11 | CCOC(=O)C1=C(COCc2nnn(CC(N)=O)n2)NC(C)=C(C(=O)OC)C1c1cccc(Cl)c1Cl (centres undefined) | 130 to 132
12 | COc1ccc(COc2cc(Sc3c(Cl)cc(C=O)cc3Cl)ccc2OC)cn1 | 102 to 104
13 | COc1ccc(-c2cc(C#N)c(=O)[nH]c2C)cc1 | 258 to 259
14 | CN1Cc2c(-c3nc(CN4C(=O)c5ccccc5C4=O)no3)ncn2-c2cccc(Cl)c2C1=O | 237 to 239
15 | CC(NC(=O)C(N)CC(=O)O)C(=O)NC1C(C)(C)SC1(C)C (centres undefined) | 57.2
16 | COC(=O)c1nn(C)nc1C(=O)O | 125 to 126
17 | Cc1cc(F)c(N)cc1O | 147
18 | CCn1ncc2c3noc(C)c3cnc21 | 181 to 182
19 | CCCCCCCCCCCCCc1c(C(=O)O)sc2c(Br)csc12 | 88 to 90
20 | CC1(C)CCc2c(N3CCOCC3)nc3sc4c(NCc5ccccn5)ncnc4c3c2C1 | 218
21 | Cc1nc(CC#N)c2n1-c1ccc(Cl)cc1C(c1ccccc1Cl)=NC2 | 212 to 214
22 | N#CNc1ccc2c3c(cccc13)CC2 | 163 to 165
23 | O=c1oc2cc(O)c(O)c([N+](=O)[O-])c2c2c1CCCC2 | 238 to 255
24 | COc1ccc(OC)c2c1C[C@](O)(CC#N)CC2=O | 160 to 162
25 | O=C(NCc1ncc(C(F)(F)F)cc1Cl)c1c(Cl)nc2c(c1Cl)CCCC2 | 48 to 50
26 | CN1CCN(c2c(F)cc3c(=O)c(C(=O)O)cn4c3c2N(C)CC4)CC1 | 266 to 269
27 | COC1=C(OC)C(=O)C2=C(CC(CCCCCCCCO)C2)C1=O | 56 to 58

Row | Structure (SMILES) | melting point [°C]
28 | COc1cc2[nH]nc(C(=O)NN=Cc3ccc([N+](=O)[O-])o3)c2cc1OC | 334
29 | CCC(=O)NC[C@H]1CN(c2ccc3c(c2)C[C@@H](C)N3C=O)C(=O)O1 | 118 to 119
30 | CCCN1NCc2c(C3C(=O)Nc4ccc(Cl)cc43)ncnc21 (centres undefined) | 293 to 297
31 | NC1CCc2ccccc2N(CC(=O)O)C1=O (centres undefined) | 147 to 150
32 | CCOC(=O)c1cn2c3c(cc(F)cc3c1=O)C(=O)CC2C (centres undefined) | 262 to 265
33 | CCC(Oc1c(C)cc(C)cc1C)C(=O)OC1CC(O)C=C2C=CC(C)C(CCC3CC(O)CC(=O)O3)C21 (mixture of isomers) | 134 to 136
34 | N#Cc1cccc2c1CC(=NN)c1cc(F)ccc1S2 | 220 to 222
35 | C=CCSc1nc2ccc(OCC)cc2[nH]1 | 147 to 149
36 | CCC1(c2cccs2)NC(=O)NC1=O (centres undefined) | 173 to 174
37 | COc1c(CBr)nc2sc(Cl)cn2c1=O | 160 to 162
38 | O=c1ccn(-c2ccc([N+](=O)[O-])cc2)c(=O)[nH]1 | > 300
39 | CCN1CCCC1c1cccc(OC(=O)NC)c1 (centres undefined) | 67 to 69
40 | Cn1c(=O)n(-c2cc(Cl)cc(Cl)c2)c(=O)n1C | 209 to 211
41 | N#CSCCNc1c(Cl)cccc1[N+](=O)[O-] | 92 to 94
42 | CNC(=O)c1c(O)c(=O)cc(C)n1C | > 250
43 | CC(N)Cn1ncc2ccc3c(c21)C(N)C(O)CO3 (centres undefined) | 84 to 88
44 | CCCCCCCCCCCCOC(CCCCCCCCCCCC)COCC(O)COc1ccc(N2CCOCC2)cc1 (centres undefined) | 49 to 52
45 | Nc1ncc2cc(-c3c(Br)cccc3Br)c(N)nc2n1 | 284 to 289
46 | COc1ccc(C2=NCC(NN)=Nc3ccc(Cl)cc32)cc1 | 213 to 215
47 | O=Cc1nccn1Cc1ccccc1[N+](=O)[O-] | 141 to 144
48 | CCON1C(C)(C)CC(OC(=O)c2ccccc2)CC1(C)C | 76 to 78
49 | O=c1[nH]c(=O)n([C@H]2CO[C@H](CO)O2)cc1/C=C/Cl | 101 to 102
50 | NCC1CCc2[nH]c3ccc(Cl)c(Cl)c3c2C1 (centres undefined) | 169 to 170
51 | CN(Cc1ccc(S(C)(=O)=O)c(S(N)(=O)=O)c1)S(C)(=O)=O | 165 to 169
52 | CCOC(=O)c1cc(C(Br)Br)cnc1Br | 88 to 89
53 | CSc1n[nH]c(=O)n1C | 97

Results, then the molecule that gave them:

Row | melting point [°C] | Structure (SMILES)
54 | 190 to 193 | O=C(Nc1nccc2ccc(CO)cc12)c1ccccc1
55 | 170 | COc1ccc2cc(-c3ccc(-n4nc(C)c(C)n4)c(Cl)c3)c(=O)oc2c1
56 | 178 to 183 | O=C(O)c1ccc(NCC=Cc2ccccc2)cn1
57 | 192 | COc1ccccc1Oc1c(Cl)nc(-c2cccnn2)nc1NS(=O)(=O)CCc1cccc2ccccc12
58 | 95 to 100 | CCOC(=O)C=C(c1ccc(I)cc1)c1ccc(I)cc1
59 | 106 to 109 | Cc1nc2c([N+](=O)[O-])cc(Br)cc2n1COCc1ccccc1
60 | 144 | Cc1ccc(-c2cn3ccc(Cl)cc3n2)cc1C
61 | 152 | CN1CCCc2cc(OC(=O)Nc3ccc(Cl)c(C(F)(F)F)c3)ccc21
62 | 211 to 212 | CCc1csc(Cc2ccc(NC(=O)/C=C/c3cnn(C)c3-c3ccc(F)cc3)cc2)n1
63 | 159 to 160 | CC(=O)NCCC1CCc2ccn3nc(-c4ccccc4)cc3c21 (centres undefined)
64 | 89 to 90 | CCOc1nn(-c2ccc(C(F)(F)F)cn2)cc1CCOc1cccc(OC(C)(C)C(=O)O)c1
65 | 182 to 183 | COCC1(C)CCCSc2cc(C#Cc3ccc(C(=O)O)cc3)ccc21 (centres undefined)
66 | 122 to 124 | Cc1c(CO)c2cnnc(OCc3ccc(F)cc3)c2n1Cc1ccccc1
67 | 264 to 265 | O=c1[nH]c2ncc(-c3ccc4[nH]cnc4c3)nc2n1CCC1CCOCC1
68 | 224 to 226 | NS(=O)(=O)c1ccc(-c2cnn(-c3ccc(F)c(F)c3)c(=O)c2Oc2ccc(F)cc2)cc1
69 | 134 to 136 | O=C(c1ccccc1)C1CCN(CCN(C(=O)c2ccc([N+](=O)[O-])cc2)c2cccnc2)CC1
70 | 222 to 225 | COc1ccc(C(=O)Nc2c(Cl)cncc2Cl)c2c3ccccc3n(Cc3ccc(F)cc3)c12
71 | 195 to 197 | CCc1cc(Nc2ccc(C(Cc3ccccc3)C(=O)O)cc2)n2nccc2n1 (centres undefined)
72 | 254 | CCOc1cc(-c2cc(C(F)F)n3ncc(C(=O)Nc4cccc(S(N)(=O)=O)c4)c3n2)ccc1C(F)(F)F
73 | 133 to 135 | N#CN=C(Nc1cccnc1)NC(NC(=O)c1ccccc1)C(Cl)(Cl)Cl (centres undefined)
74 | 123 to 130 | O=c1cc(-c2ccccc2)oc2cc(OCC3CO3)ccc12 (centres undefined)
75 | 165 to 176 | O=C(O)c1ccc(CN2CCC(CCCC(=O)c3ccc4c(c3)CCN(Cc3ccccc3)CC4)CC2)cc1
76 | 85 to 86 | COC(=O)c1cc(COC(C)=O)cc(-n2cccc2C#N)c1

Row | melting point [°C] | Structure (SMILES)
77 | 144 to 147 | CSc1nc(-c2cc(C(=O)N(C)C)ccc2C)c2c(n1)N(c1c(F)cccc1F)C(=O)NC2
78 | 167 to 169 | O=C1C(O)=C(N2CCN(c3cccc(C(F)(F)F)c3)CC2)C(=O)c2ccccc21
79 | 185 to 186 | CC(=O)c1ccc(N(C2CC2)S(=O)(=O)c2cccc(C(=O)Nc3ccc(C#N)cc3)c2)cc1
80 | 116 to 119 | CCCC(=O)Oc1ccc(C)cc1[C@H](CCN(C(C)C)C(C)C)c1ccccc1
81 | 160 to 162 | Cc1noc(NS(=O)(=O)c2ccccc2-c2ncccn2)c1C
82 | 108 to 109 | COC(=O)Cc1ccccc1OCc1cc(OCc2nc(-c3ccccc3)sc2C)no1
83 | 85 to 90 | OC(c1ccc2c(c1)CCN2Cc1ccccc1)(C(F)(F)F)C(F)(F)F
84 | 155 to 157 | CC(C)N(C[C@H](O)[C@H](Cc1ccccc1)NC(=O)c1ccccc1NC(=O)OCc1ccccn1)NC(=O)OC(C)(C)C
85 | 166 to 168 | O=C1CC[N+]([O-])=C(c2ccccc2F)c2cc(Cl)ccc21
86 | 185 to 205 | CC(=O)c1cccc2cc3c(C(C)=O)cccc3cc12
87 | 95 to 98 | CC(C)c1nc(-c2ccccc2)nc(-c2ccc(F)cc2)c1C=C(Br)Br
88 | 167 to 168 | CCCc1c(OCCOc2ccc3c(=O)cc(-c4ccc(C(=O)OCC)cc4)oc3c2CCC)ccc(C(C)=O)c1O
89 | 190 to 194 | COC(=O)c1nc2n(n1)-c1ccc(Cl)cc1N(c1ccccc1)C2
90 | 70 to 71 | O=S(CCc1ccccc1)CCc1ccccc1
91 | 114 to 115 | CCCCCCCCOc1ccc(-c2nc(-c3ccccc3)c(-c3ccccc3)n2CCCCCCCC(=O)O)cc1
92 | 86 to 88 | CCOC(=O)C1=C(C)NC(COC(=O)COc2ccc(Cl)cc2)=C(C(=O)OCC)C1c1ccccc1[N+](=O)[O-] (centres undefined)
93 | 107 to 108 | CCOC(=O)N(C(=S)NC(C)C)c1c(C(C)C)cc(Oc2ccccc2)cc1C(C)C
94 | 318 to 325 | CCOC(=O)c1ncc2[nH]c3c([N+](=O)[O-])cccc3c2n1
95 | 135 to 139 | CCCc1c(OCc2ccccc2C(=O)NCCCCc2cccnc2)ccc(C(C)=O)c1O
96 | 205 to 208 | O=C(Nc1ccc(-c2cnc(-c3cccc(NC(=O)c4ccccn4)c3)[nH]2)cc1)c1ccccn1
97 | 105 to 109 | COc1cc(C(=O)NS(=O)(=O)c2ccccc2C)ccc1Cn1cc(CCC(=O)N(C)C)c2ccc(CCC(=O)N(C)C)cc21
98 | 108 to 109 | FC(F)(F)c1cc(C2CN(Cc3ccccc3)CO2)c2cccc(C(F)(F)F)c2n1 (centres undefined)
99 | 104 to 106 | CN1C(=O)C(c2cccc(-c3cccnc3F)c2)(c2cnn(CC(F)(F)F)c2)N=C1N (centres undefined)
